From ChEMBL document CHEMBL1201862, “PubChem BioAssay data set” (2004)
Calls of active or inactive are those of the source.

Key:
Prothrombin = Prothrombin (Homo sapiens, UniProt P00734); assay: Thrombin 1536 HTS Dose Response Confirmation. [Related pubchem assays: 1046 (Thrombin 1536 HTS; hits were confirmed in this assay)]; type: functional
Coagulation factor XII = biological target: T1, Coagulation factor XII (Homo sapiens, UniProt P00748); type: functional;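 also: activated factor XIIa alpha cleaving a fluorogenic AMC peptide substrate; inhibitor potency from loss of enzyme activity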
T1 sequence (P00748 whole entry): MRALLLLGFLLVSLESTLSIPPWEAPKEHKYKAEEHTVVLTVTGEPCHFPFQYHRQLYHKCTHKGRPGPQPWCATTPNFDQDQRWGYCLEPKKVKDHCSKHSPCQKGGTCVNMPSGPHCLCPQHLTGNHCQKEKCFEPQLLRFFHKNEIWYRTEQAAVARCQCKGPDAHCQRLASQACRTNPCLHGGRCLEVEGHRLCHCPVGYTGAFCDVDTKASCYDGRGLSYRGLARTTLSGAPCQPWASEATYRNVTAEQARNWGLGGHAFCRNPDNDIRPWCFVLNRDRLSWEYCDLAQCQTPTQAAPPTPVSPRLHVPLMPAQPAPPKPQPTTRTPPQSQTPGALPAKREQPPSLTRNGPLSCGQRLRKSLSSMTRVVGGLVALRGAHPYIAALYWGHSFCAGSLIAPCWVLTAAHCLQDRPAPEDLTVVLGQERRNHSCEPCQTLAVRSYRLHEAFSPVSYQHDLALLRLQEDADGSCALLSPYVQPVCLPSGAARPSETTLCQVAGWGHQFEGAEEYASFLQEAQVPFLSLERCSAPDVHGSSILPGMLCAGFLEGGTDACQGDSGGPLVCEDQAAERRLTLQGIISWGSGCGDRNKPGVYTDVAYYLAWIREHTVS

[1] = biological target: G-protein coupled receptor 55 (Homo sapiens, UniProt Q9Y2T6); assay: GPR55 antagonists blocking LPI-driven arrestin recruitment, primary screen, imaging, U2OS, beta-arrestin-GFP, LPI agonist (AID 2013); type: functional;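 also: antagonist potency measured as reduced agonist-driven arrestin aggregation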
Nonstructural protein 1 = Nonstructural protein 1 (Influenza A virus, UniProt Q194T2); type: functional, Influenza A virus (A/California/07/2009(H1N1))
[2] = biological target: T2, Replicative DNA helicase DnaB (Mycobacterium tuberculosis, UniProt P9WMR3); assay: DnaB intein splicing inhibitors, dose response, biochemical, cell-free fluorescence (AID 449749); type: functional
T2 sequence (P9WMR3 whole entry): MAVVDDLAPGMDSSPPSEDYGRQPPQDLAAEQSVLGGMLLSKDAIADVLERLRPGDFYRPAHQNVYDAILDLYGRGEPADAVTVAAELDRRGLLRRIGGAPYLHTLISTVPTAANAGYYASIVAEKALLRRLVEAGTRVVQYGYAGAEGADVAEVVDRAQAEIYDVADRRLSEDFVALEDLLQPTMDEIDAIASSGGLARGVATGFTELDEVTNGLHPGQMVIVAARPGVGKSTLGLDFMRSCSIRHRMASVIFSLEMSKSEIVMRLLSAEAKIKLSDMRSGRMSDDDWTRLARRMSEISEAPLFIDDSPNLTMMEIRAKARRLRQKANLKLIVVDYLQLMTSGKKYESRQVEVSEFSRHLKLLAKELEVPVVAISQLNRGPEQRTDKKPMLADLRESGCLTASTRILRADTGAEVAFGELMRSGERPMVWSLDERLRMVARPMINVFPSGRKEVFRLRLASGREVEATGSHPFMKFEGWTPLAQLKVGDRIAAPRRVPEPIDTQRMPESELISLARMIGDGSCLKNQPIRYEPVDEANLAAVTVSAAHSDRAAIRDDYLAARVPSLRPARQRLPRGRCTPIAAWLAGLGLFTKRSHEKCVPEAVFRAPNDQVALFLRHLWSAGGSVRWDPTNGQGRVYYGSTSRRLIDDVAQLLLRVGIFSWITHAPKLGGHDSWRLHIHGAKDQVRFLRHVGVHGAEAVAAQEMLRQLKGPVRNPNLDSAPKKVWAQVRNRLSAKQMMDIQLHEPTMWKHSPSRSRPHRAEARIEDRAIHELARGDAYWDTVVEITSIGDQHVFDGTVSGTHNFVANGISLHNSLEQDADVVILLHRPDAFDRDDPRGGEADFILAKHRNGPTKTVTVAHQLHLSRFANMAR

Protein RecA = biological target: T3, Protein RecA (Mycobacterium tuberculosis, UniProt P9WHJ3); assay: Fluorescence Cell-Free Homogeneous Dose Retest to Identify Inhibitors of RecA-Intein Splicing Activity. [Related pubchem assays (depositor defined):AID2097, AID2223, AID489010, AID492950]; type: functional
T3 sequence (P9WHJ3 whole entry): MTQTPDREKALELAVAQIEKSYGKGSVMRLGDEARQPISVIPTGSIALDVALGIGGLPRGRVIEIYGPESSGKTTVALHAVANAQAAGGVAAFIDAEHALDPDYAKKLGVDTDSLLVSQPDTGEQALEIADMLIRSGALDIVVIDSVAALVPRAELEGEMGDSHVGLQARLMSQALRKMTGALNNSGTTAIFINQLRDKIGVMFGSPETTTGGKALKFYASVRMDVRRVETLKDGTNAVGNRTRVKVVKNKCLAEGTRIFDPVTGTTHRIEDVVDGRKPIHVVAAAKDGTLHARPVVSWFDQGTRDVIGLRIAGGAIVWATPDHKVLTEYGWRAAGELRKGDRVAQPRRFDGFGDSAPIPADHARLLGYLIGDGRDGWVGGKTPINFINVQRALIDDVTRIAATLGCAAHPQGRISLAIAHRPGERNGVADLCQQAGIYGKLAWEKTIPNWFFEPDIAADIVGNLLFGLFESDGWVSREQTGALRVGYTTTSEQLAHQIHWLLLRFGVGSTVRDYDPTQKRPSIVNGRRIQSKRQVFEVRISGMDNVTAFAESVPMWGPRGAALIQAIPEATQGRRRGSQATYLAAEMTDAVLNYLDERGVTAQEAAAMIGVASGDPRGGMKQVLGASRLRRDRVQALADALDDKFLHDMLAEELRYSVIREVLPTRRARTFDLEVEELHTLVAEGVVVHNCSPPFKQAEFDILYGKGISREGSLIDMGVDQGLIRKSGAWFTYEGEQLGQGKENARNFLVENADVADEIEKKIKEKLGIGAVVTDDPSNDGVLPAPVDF

SUMO-activating enzyme = SUMO-activating enzyme (Homo sapiens, UniProt Q9UBT2); assay: SUMOylation inhibitor hit validation, confirmation, SUMOylation inhibitor project, biochemical, AlphaScreen (AID 2018); type: functional
[3] = HEp-2 cell cytotoxicity, dose response, cytotoxicity control for RSV inhibitor project, HTS (AID 2410); type: functional; settings: human respiratory syncytial virus
[4] = Luminescence Cell-Based Dose Response HTS to Identify Activators of Luciferase Translation or Activity in H4 […] Cells. [Related pubchem assays: 1829 (Project Summary), 1814 (Primary HTS)]; type: functional
[5] = system: Streptococcus sp. 'group A'; assay: growth inhibition of control SK(-) GAS strain, dose response, counter-screen for streptokinase expression inhibitor project, luminescence, kanamycin, BacTiterGlo, confirmation (AID 1900); type: functional, organism-based
H4 = assay: Luminescence Cell-Based Dose Response HTS to Identify Activators of 5'UTR Stem-Loop Driven Prion Protein mRNA Translation in H4 Neuroglioblastoma Cells. [Related pubchem assays: 1829 (Project Summary), 1814 (Primary HTS)]; type: functional; settings: Homo sapiens
Streptokinase A = biological target: T4, Streptokinase A (Streptococcus pyogenes serotype M1, UniProt P10520); assay: S. pyogenes streptokinase expression inhibitors, potency, dose response, plasminogen activation absorbance, OD405 (AID 1914); type: functional, Streptococcus pyogenes M1 GAS;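 also: secreted streptokinase activity via plasminogen activation per viability signal from cell pellet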
T4 sequence (P10520 whole entry): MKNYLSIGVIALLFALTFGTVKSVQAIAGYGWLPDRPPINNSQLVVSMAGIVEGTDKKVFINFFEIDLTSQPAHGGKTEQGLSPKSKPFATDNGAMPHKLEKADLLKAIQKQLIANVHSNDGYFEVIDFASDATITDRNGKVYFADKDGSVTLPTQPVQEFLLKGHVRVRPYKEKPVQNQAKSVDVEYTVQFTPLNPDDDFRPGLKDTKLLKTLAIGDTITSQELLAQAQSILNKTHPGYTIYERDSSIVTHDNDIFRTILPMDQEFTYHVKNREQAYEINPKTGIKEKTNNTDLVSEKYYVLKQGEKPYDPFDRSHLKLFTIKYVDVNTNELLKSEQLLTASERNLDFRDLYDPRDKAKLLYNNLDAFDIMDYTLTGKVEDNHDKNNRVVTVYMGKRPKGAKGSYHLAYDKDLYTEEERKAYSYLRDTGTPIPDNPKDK

Streptococcus = assay: Group A Streptococcus viability loss, dose response, counter-screen for streptokinase expression inhibitor project, luminescence, BacTiterGlo (AID 1915); type: functional, organism-based;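 also: potency for reduction of bacterial viability or growth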
ORF 73 = biological target: T5, ORF 73 (Human herpesvirus 8, UniProt O40947); assay: inhibitors of C-LANA binding to LBS DNA, dose response, biochemical, fluorescence polarization, cherry-picked samples (AID 504725); set-up: species or system Human gammaherpesvirus 8;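 also: fluorescence polarization of a labeled DNA duplex reporting LANA DNA binding; potency is for inhibitors that block LANA binding to the DNA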
T5 sequence (O40947 whole entry): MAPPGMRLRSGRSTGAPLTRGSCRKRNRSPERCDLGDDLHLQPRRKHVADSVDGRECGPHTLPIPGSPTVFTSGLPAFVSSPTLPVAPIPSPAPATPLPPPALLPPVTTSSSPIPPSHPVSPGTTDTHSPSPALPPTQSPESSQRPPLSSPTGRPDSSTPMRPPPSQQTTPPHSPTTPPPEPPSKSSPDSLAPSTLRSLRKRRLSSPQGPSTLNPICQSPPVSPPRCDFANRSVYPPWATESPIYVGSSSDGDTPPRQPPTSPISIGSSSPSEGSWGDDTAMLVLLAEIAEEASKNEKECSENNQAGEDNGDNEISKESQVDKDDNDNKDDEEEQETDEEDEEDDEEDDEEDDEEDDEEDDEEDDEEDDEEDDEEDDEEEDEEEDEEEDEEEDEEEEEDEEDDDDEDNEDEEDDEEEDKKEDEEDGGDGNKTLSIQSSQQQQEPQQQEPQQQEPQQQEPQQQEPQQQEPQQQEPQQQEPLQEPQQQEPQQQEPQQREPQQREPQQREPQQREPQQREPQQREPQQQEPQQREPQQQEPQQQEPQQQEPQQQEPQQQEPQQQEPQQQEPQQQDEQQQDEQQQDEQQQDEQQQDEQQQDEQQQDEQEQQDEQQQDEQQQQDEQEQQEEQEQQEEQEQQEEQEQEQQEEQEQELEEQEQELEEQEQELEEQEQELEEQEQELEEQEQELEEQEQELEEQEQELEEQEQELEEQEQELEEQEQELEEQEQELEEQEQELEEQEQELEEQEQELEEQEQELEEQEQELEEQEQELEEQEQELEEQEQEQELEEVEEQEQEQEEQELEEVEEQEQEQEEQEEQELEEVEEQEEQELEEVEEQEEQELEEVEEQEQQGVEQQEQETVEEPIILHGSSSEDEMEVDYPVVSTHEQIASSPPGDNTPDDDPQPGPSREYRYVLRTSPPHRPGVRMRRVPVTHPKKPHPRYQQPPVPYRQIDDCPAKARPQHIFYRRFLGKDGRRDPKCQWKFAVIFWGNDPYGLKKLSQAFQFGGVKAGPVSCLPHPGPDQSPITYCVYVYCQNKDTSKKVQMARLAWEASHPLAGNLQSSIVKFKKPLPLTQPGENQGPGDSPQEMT

[6] = biological target: Glyceraldehyde-3-phosphate dehydrogenase (Homo sapiens, UniProt P04406)
[7] = biological target: T6, Alkaline phosphatase, tissue-nonspecific isozyme (Homo sapiens, UniProt P05186); assay: human TNAP enzyme inhibitors, SAR follow-up, biochemical, luminescent, dose response (AID 1056)
T6 sequence (P05186 whole entry): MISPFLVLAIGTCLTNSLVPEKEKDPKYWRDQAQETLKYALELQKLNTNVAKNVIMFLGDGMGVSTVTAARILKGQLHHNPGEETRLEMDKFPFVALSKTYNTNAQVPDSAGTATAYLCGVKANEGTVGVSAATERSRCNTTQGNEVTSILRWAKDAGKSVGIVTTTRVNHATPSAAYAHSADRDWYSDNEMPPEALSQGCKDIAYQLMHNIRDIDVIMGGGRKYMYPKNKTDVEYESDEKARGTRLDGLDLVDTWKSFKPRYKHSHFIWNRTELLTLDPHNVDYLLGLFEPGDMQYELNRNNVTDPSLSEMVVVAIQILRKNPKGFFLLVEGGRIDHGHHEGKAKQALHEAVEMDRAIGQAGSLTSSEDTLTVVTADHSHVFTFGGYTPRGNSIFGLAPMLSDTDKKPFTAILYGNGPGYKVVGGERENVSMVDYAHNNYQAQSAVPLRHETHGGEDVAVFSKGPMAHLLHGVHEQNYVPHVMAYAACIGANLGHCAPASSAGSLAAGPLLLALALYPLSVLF

Sequence of Glyceraldehyde-3-phosphate dehydrogenase (P04406 whole entry): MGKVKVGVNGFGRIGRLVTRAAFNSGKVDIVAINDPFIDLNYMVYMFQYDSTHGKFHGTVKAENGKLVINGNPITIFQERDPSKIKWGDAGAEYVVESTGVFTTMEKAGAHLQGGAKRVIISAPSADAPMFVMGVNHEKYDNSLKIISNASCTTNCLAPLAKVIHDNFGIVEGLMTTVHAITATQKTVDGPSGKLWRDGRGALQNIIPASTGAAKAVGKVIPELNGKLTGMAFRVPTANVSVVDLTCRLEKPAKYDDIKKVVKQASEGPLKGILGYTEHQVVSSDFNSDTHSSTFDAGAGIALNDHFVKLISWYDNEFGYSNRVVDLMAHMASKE
Sequence of G-protein coupled receptor 55 (Q9Y2T6 whole entry): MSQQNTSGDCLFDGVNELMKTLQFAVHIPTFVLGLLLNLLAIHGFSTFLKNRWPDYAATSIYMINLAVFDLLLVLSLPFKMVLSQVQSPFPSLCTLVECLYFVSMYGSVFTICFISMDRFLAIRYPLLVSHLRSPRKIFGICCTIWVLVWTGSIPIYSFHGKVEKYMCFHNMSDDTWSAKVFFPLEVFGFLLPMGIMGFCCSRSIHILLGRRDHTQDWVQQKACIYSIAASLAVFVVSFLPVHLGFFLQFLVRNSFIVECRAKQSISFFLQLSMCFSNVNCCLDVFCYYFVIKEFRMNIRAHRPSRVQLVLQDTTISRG
Sequence of Nonstructural protein 1 (Q194T2 whole entry): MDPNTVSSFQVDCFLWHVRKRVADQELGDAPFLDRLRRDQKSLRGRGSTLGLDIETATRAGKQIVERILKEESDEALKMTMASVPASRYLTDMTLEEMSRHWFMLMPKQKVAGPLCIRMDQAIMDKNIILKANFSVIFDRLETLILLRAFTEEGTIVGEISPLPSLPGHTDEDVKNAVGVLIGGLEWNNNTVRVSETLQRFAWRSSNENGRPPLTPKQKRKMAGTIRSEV
Sequence of SUMO-activating enzyme (Q9UBE0 whole entry): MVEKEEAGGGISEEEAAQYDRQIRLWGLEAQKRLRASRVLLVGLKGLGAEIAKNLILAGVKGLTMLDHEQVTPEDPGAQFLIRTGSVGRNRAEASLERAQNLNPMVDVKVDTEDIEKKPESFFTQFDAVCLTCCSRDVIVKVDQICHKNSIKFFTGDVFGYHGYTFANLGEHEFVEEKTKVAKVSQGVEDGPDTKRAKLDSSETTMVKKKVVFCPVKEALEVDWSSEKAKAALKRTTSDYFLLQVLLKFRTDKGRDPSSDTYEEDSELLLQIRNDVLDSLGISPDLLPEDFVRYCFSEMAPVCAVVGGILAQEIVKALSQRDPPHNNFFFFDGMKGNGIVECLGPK
Sequence of SUMO-activating enzyme (Q9UBT2 whole entry): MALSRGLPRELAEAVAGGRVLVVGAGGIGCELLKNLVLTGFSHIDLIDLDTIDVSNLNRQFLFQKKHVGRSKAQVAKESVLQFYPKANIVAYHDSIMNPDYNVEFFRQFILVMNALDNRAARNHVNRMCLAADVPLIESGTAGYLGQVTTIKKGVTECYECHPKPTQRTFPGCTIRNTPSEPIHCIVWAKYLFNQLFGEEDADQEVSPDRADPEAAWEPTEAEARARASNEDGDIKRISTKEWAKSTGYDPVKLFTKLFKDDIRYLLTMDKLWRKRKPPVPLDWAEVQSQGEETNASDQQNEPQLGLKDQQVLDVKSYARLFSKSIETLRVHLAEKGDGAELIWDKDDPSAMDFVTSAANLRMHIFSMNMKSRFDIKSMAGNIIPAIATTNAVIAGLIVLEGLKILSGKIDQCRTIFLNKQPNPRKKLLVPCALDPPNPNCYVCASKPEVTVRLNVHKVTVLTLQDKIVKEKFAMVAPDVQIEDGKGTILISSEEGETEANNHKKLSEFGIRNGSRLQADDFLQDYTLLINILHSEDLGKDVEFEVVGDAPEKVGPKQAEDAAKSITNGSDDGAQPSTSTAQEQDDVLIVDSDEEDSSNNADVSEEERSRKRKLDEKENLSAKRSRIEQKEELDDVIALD

Compound: CN(Cc1ccccn1)Cc1nc(-c2ccc(Cl)cc2)no1
- IC50 (Prothrombin): > 50 µM (not active)
- IC50 (Coagulation factor XII): > 50 µM (inactive)

Compound: Clc1ccc(-c2noc(CSc3nnc(Cc4cccs4)n3-c3ccccc3)n2)cc1
- IC50 [1]: 2.67 µM (active)

Compound: COc1ccc2nc3ccccc3nc2c1N
- IC50 (Coagulation factor XII): > 50 µM (inactive)
- IC50 (Nonstructural protein 1): 32.5 µM (active)
- AC50 [2]: 40.1 µM (active)
- EC50 (Protein RecA): 22.1 µM (active)

Compound: O=C(Nc1ccc(Br)cc1)c1ccc(N2C(=O)C3CC=C(Cl)CC3C2=O)cc1 (configuration not stated)
- IC50 (SUMO-activating enzyme): 49.7 µM (active)

Compound: CC1=C(C(=O)OCC2CCCO2)C(c2ccc(C)o2)C2=C(O)CC(c3ccc(F)cc3)CC2=N1 (configuration not stated)
- IC50 (Coagulation factor XII): > 50 µM (inactive)

Compound: N=C1S/C(=C\c2cn[nH]c2-c2ccc(F)cc2)C(=O)N1c1ccccc1F
- CC50 [3]: 20.2 µM (active)
- EC50 [4]: 8.92 µM (active)
- EC50 [5]: 4.49 µM (active)
- EC50 (H4): > 120 µM (not active)
- EC50 (Streptokinase A): > 150 µM (not active)
- IC50 [1]: < 0.5 µM (active)
- EC50 (Streptococcus): 38.9 µM (active)

Compound: CC(Oc1ccccc1)c1nnc(N)s1 (configuration not stated)
- AC50 (ORF 73): 53 µM (active)

Compound: O=C(O)c1ccc(-c2ccccc2Cl)o1
- IC50 [6]: > 100 µM (not active)
- IC50 [7]: > 100 µM (inactive)

Compound: CCOc1ccc(C)cc1S(=O)(=O)Nc1cccnc1
- IC50 [6]: > 10 µM (inconclusive)
- IC50 [7]: 0.858 µM (active)

Compound: Cc1cc(C(=O)NCCc2ccc(O)c(O)c2)oc1C
- IC50 [7]: 57.3 µM (active)
